Data taken from patent US9018216B2, “Solid forms of (R)-2-(5-(2-(3-ethylureido)-6-fluoro-7-(tetrahydrofuran-2-yl)-1H-benzo[d]imidazol-5-yl)pyrimidin-2-yl)propan-2-yl dihydrogen phosphate and salts thereof” (priority 2012, dated 2015).
≈ marks a conversion by molar mass, not a printed value. Structures can show the parent of a compound that is named as a salt. Where two headings read alike, the source gives them in different places.

What was measured:
[1] = Rat oral pharmacokinetic study; type: in vivo, Sprague Dawley rats; details: 0.5% MC, plasma analyte
Source text: (§1) Plasma concentration vs. time data was subjected to noncompartmental pharmacokinetic (PK) analysis.

[2] = Monkey oral pharmacokinetic study; type: in vivo, cynomolgus monkeys; details: 0.5% MC, plasma analyte
Source text: as §1

[3] = Monkey IV pharmacokinetic study; details: Compound W IV 5 mg/kg, D5W, plasma analyte
Procedure: Animals had free access to food and water before and after dosing.
Blood samples (approximately 0.25 mL each) were collected via a carotid artery catheter prior to dosing and at 0 (predose), 5 min, 10 min, 0.25, 0.5, 1, 2, 3, 4, 6, 8, 12, 24, 48 hours postdose. Each blood sample was collected into a tube that was kept on wet ice and contained potassium EDTA as the anticoagulant. Plasma was separated and stored at approximately −70° C. until analysis.
Plasma concentration vs. time data were subjected to noncompartmental pharmacokinetic (PK) analysis.

[4] = Oral range finding toxicity and toxicokinetic study in male Cynomolgus monkeys; type: in vivo, Cynomolgus monkeys (Macaca Fascicularis)
Source text: Cynomolgus monkeys (Macaca Fascicularis) were obtained from Primus Bio-Resources Inc. of PinCourt, Quebec, Canada. Cynomolgus monkeys were chosen because they are a non-rodent species that is commonly used for nonclinical toxicity evaluations.
Eight (2 naive and 6 non-naïve) males were used in the study. The animals were young adults and weighed between 2 to 4 kg at the onset of dosing.
The first day of dosing was designated as Day 1 of the study. The actual volume administered to each animal was calculated and adjusted based on the most recent body weight of each animal.
Cage-side clinical signs (ill health, behavioral changes etc.) were recorded at least once daily during the study.
Body weights were recorded for all animals prior to group assignment and on Days 1 (prior to dosing), 3 and 7 as well as terminally prior to necropsy (fasted).
Electrocardiograms (bipolar limb leads I, II and III, and augmented unipolar leads aVR, aVL and aVF) were obtained for all monkeys once during the pre-treatment period and again on Day 7 (post-dosing).
The tracings were assessed for gross changes indicative of cardiac electrical dysfunction. The potential presence of abnormalities involving heart rate (lead II), sinus and atrioventricular rhythm or conductivity were determined. Heart rate, PR interval, QRS duration, QT and QTc intervals values were measured.
A series of 7 blood samples (approximately 0.5 mL each) were collected from each monkey on Days 1 and 7 at the following time points: predose, 30 minutes and 2, 3, 6, 12 and 24 hours post-dose. For this purpose, each monkey was bled by venipuncture and the samples were collected into tubes containing the anticoagulant, K2EDTA. Tubes were placed on wet ice until ready for processing.
Laboratory investigations (hematology, coagulation, clinical chemistry and urinalysis) were performed on all animals prior to start of treatment and prior to termination on Day 8.
A necropsy with tissue collection was conducted on all animals terminated during the study. The necropsy included examination of:
For all animals, all tissues indicated above were embedded in paraffin, sectioned and stained with hematoxylin and eosin and examined by light microscopy.

[5] = Rat IV pharmacokinetic study; details: D5W, plasma analyte
[6] = test system: M. tuberculosis Erdman ATCC 35801; assay: Mycobacterium tuberculosis serum shift MIC assay (Protocol 5); type: cell-based
[7] = Seven-day oral (gavage) toxicity and toxicokinetics study in rats; type: in vivo, Crl:CD(SD) rats; details: for Mean food consumption: Compound 13 once daily 100 or 200 mg/kg, Compound 23A twice daily 300 mg/kg, different intervals of the study, not considered adverse; for adverse observations or effects on mean body weight / dose levels without adverse toxicity within the scope of the study / NOEL (No-Observable-Effect-Level) / exposures for different dosage levels: male rats; for adverse observations or effects on mean body weight / dose levels without adverse toxicity within the scope of the study: 7 days oral gavage; for NOEL (No-Observable-Effect-Level): once a day for 7 days orally via gavage; for exposures for different dosage levels: oral gavage, toxicokinetics; for histopathological findings: any dose regimen
Source text: Crl:CD(SD) rats were obtained from Charles River Laboratories of Stone Ridge, N.Y. The animals were laboratory bred and experimentally naïve. Rats were chosen because they are a species that is commonly used for nonclinical toxicity evaluations.
Forty rats (20 noncannulated males and 20 males with jugular vein cannulas) were ordered. From these animals, 15 noncannulated males and 15 cannulated males were used. Animals were as uniform in age as possible. The rats were prepubertal to young adult, approximately 9 weeks of age at initiation of dosing. Their supplier-calculated birth date was retained in the study records. The weight range for the animals at the time of allocation to groups was 218.5-306.3 g.
Animals received the test article or vehicle by oral gavage for 7 consecutive days and were terminated the day following completion of dosing. The first day of dosing was designated as Day 1 of the study. The animals were evaluated for changes in clinical signs, body weight, and other parameters as described below.
The vehicle and test article were administered by oral gavage once daily for 7 consecutive days at a dose volume of 10 mL/kg body weight for Group A and Groups B-D, respectively. The test article and vehicle were administered by oral gavage twice daily, approximately 8 hours apart, for 7 consecutive days at a dose volume of 10 mL/kg body weight for Group E and Group F, respectively. The actual volume administered to each animal was calculated and adjusted based on the most recent body weight of each animal.
During the treatment period, daily cageside observations were made and recorded predose and postdose (following the first dose only). The postdosing observations made during treatment occurred at the following times based on Cmax/Tmax for the two compounds from previous studies:
Prior to start of dosing, body weights were measured for randomization on Day 1. During the treatment, body weights were measured on Day 1 and Day 7. In addition, fasted body weights were measured prior to necropsy for calculation of organ/body weight ratios.
Throughout the study, food consumption was measured daily starting 3 days prior to start of dosing.
Blood samples for evaluation of hematology, coagulation, and serum chemistry parameters were collected from all animals from the retro-orbital plexus (under CO2/O2 anesthesia, for the main study animals) or jugular vein cannula (for the toxicokinetic animals) prior to necropsy. Due to residual heparin used to keep the cannulas patent for the toxicokinetic animals, coagulation samples from these rats, were not able to be analyzed. The animals were fasted overnight prior to blood collection. On the day of blood collection for clinical pathology analyses, the animals were not necropsied until after the blood was collected and the samples judged to be acceptable by the clinical pathology group.
On the 1st and 7th day of dosing, blood samples (approximately 0.5 mL/sample) were collected from the jugular vein cannula for all toxicokinetic animals at the timepoints listed below into K3EDTA-containing tubes. […] Prior to each collection, a small sample of blood (with heparin blocking solution) was removed from the cannula and discarded. A new syringe was placed on the cannula, and the protocol-required sample was taken. The syringe with the blood sample was removed, and a new syringe with saline attached to the cannula. Blood volume was replaced with an equal volume of saline and then blocking solution placed in the cannula. Each animal was returned to its cage until the next collection timepoint.
For all animals euthanized at scheduled necropsies, the kidneys, liver, and prostate gland were weighed. Following weighing, an approximate 1 gram sample of liver and kidney was weighed, transferred to Precellys 7 mL CK28 Tissue Homogenizing tubes (Cat. No. 0904-01), snap-frozen, and analyzed. […]

[8] = test system: M. tuberculosis ATCC 35801 (strain Erdman); assay: Mouse M. tuberculosis (Erdman) 28 day lung infection model; type: in vivo, M. tuberculosis; host Balb/c mice; details: 28 days
M. tuberculosis H37Rv = details: cited from earlier work
[9] = test system: Staphylococcus aureus ATCC 29213; assay: microbe, parasite or virus in culture; type: cell-based; details: Staphylococcus aureus, ATCC29213, Staphylococcus aureus ATCC 29213; Protocol 1; read-out: MIC
[10] = Stability of the solid forms (net increase in total impurities at 40 C/30% RH); type: physicochemical; details: 15 days
[11] = doses up to 200 mg/kg/day, 7 days
[12] = M. tuberculosis Erdman ATCC 35801
[13] = M. tuberculosis Erdman ATCC 35801 with Mouse Serum
[14] = Table 23a, 10 mg/kg BID oral gavage
[15] = Table 23a, 30 mg/kg BID oral gavage
[16] = Table 23a, 100 mg/kg BID oral gavage
[17] = rats, 300 mg/kg twice a day, compared to controls treated twice a day

SMILES: CCNC(=O)Nc1nc2cc(-c3cnc(C(C)(C)O)nc3)c(F)c([C@H]3CCCO3)c2[nH]1 [Compound 23, 1-ethyl-3-[6-fluoro-5-[2-(1-hydroxy-1-methyl-ethyl)pyrimidin-5-yl]-7-[(2R)-tetrahydrofuran-2-yl]-1H-benzimidazol-2-yl]urea]
- AUCextrap ([1]; Compound W oral 3 mg/kg): 314 ng·h/mL
- AUCextrap ([1]; Compound W oral 30 mg/kg): 22600 ng·h/mL
- AUCextrap ([1]; Compound W oral 100 mg/kg): 77400 ng·h/mL
- AUCextrap ([2]; Compound W PO 30 mg/kg): 24800 ng·h/mL
- AUCextrap ([2]; Compound W PO 100 mg/kg): 76900 ng·h/mL
- AUCextrap ([2]; Compound W PO 300 mg/kg): 155000 ng·h/mL
- AUCextrap [3]: 3810 ng·h/mL
- clinical signs, body weights, electrocardiography, clinical pathology, organ weights [4, 11]: no clinical signs, or changes in body weights, electrocardiography parameters, clinical pathology parameters, or organ weights
- macroscopic or microscopic findings [4, 11]: no macroscopic or microscopic findings
- no observed effect level (NOEL) ([4]; male Cynomolgus monkeys, oral gavage once per day for 7 days): 200 mg/kg/day
- exposures for different dosage levels ([4]; male Cynomolgus monkeys, oral gavage, toxicokinetics): dose related
- AUCextrap ([5]; Compound W IV 1 mg/kg): 310 ng·h/mL
- Cl_obs ([5]; Compound W IV 1 mg/kg): 54.9 mL/min/kg
- Vss_obs ([5]; Compound W IV 1 mg/kg): 3.8 L/kg
- t1/2 ([5]; Compound W IV 1 mg/kg): 1.8 h
- AUCextrap ([5]; Compound W IV 5 mg/kg): 3060 ng·h/mL
- Cl_obs ([5]; Compound W IV 5 mg/kg): 27.3 mL/min/kg
- Vss_obs ([5]; Compound W IV 5 mg/kg): 4.08 L/kg
- t1/2 ([5]; Compound W IV 5 mg/kg): 3.6 h

SMILES: CCNC(=O)Nc1nc2cc(-c3cnc(C(C)(C)O)nc3)cc([C@H]3CCCO3)c2[nH]1 [Compound 13, 1-ethyl-3-[5-[2-(1-hydroxy-1-methyl-ethyl)pyrimidin-5-yl]-7-[(2R)-tetrahydrofuran-2-yl]-1H-benzimidazol-2-yl]urea]
- MIC [6, 12]: 0.045 µg/mL
- MIC [6, 13]: 2 µg/mL
- Mean food consumption [7]: reduced
- adverse observations or effects on mean body weight [7]: No adverse observations or effects on mean body weight
- dose levels without adverse toxicity within the scope of the study [7]: up to 200 mg/kg/day
- NOEL (No-Observable-Effect-Level) [7]: 200 mg/kg
- exposures for different dosage levels [7]: dose related
- histopathological findings ([7]; rats): No test article-related histopathological findings

SMILES: COc1c(N2C[C@@H]3CCCN[C@@H]3C2)c(F)cc2c(=O)c(C(=O)O)cn(C3CC3)c12 [Moxifloxacin, reference compound]
- Average Lung Burden ([8]; Table 23a, 100 mg/kg QD): 2.94 Log cfu/lungs
- Log Reduction vs. Early Control ([8]; Table 23a, 100 mg/kg QD): 2.04 Log
- Log Reduction vs. Late Control ([8]; Table 23a, 100 mg/kg QD): 2.26 Log
- Log Reduction vs. Early Control ([8]; Table 23b, 100 mg/kg QD): 2.04 Log
- Log Reduction vs. Late Control ([8]; Table 23b, 100 mg/kg QD): 1.42 Log
- Median Lung Burden ([8]; Table 23b, 100 mg/kg QD): 2.94 Log cfu/lungs

SMILES: CCNC(=O)Nc1nc2cc(-c3cnc(C(C)(C)O)nc3)c(F)c([C@H]3CCCO3)c2[nH]1 [Compound 23A, methanesulfonic acid salt of 1-ethyl-3-[6-fluoro-5-[2-(1-hydroxy-1-methyl-ethyl)pyrimidin-5-yl]-7-[(2R)-tetrahydrofuran-2-yl]-1H-benzimidazol-2-yl]urea]
- Average Lung Burden [8, 14]: 5.08 Log cfu/lungs
- Log Reduction vs. Early Control [8, 14]: −0.10 Log
- Log Reduction vs. Late Control [8, 14]: 0.13 Log
- Average Lung Burden [8, 15]: 4.11 Log cfu/lungs
- Log Reduction vs. Early Control [8, 15]: 0.86 Log
- Log Reduction vs. Late Control [8, 15]: 1.09 Log
- Average Lung Burden [8, 16]: 3.22 Log cfu/lungs
- Log Reduction vs. Early Control [8, 16]: 1.76 Log
- Log Reduction vs. Late Control [8, 16]: 1.98 Log
- reduction of bacterial burdens versus the early control ([8]; doses of 30 and 100 mg/kg): 0.7-1.5 logs
- MIC [6, 12]: 0.03 µg/mL
- MIC [6, 13]: 0.5 µg/mL
- Mean food consumption [7]: reduced
- adverse observations or effects on mean body weight [7]: No adverse observations or effects on mean body weight
- dose levels without adverse toxicity within the scope of the study [7]: ≤ 600 mg/kg/day
- NOEL (No-Observable-Effect-Level) [7]: 100 mg/kg
- exposures for different dosage levels [7]: dose related
- AST [7, 17]: statistically higher
- mean ALT [7, 17]: statistically higher
- mean calcium ion concentration (CA) [7, 17]: statistically lower
- histopathological findings ([7]; rats): No test article-related histopathological findings

SMILES: NC(=O)c1cnccn1 [Pyrazinamide]
- MIC (M. tuberculosis H37Rv; normal pH): 250 µg/mL (≈ 2030 µM)
- MIC (M. tuberculosis H37Rv; pH 6.0): 50 µg/mL (≈ 406 µM)

SMILES: CCNC(=O)Nc1nc2cc(-c3cnc(C(C)(C)OP(=O)([O-])[O-])nc3)c(F)c([C@H]3CCCO3)c2[nH]1.[Na+].[Na+] [Amorphous di-Na salt, disodium (R)-2-(5-(2-(3-ethylureido)-6-fluoro-7-(tetrahydrofuran-2-yl)-1H-benzo[d]imidazol-5-yl)pyrimidin-2-yl)propan-2-yl phosphate]
- MIC [9]: 4 µg/mL
- Net % increase in total impurities [10]: 1.74%
